IC50 data for 27 molecules are collected here from patent US10617680B2 (CELGENE QUANTICEL RESEARCH, INC., priority 2017, dated 2020).

The structures appear in SMILES notation.

The test deals with CBP (Homo sapiens (Human), UniProt Q92793). Description: In vitro CBP inhibition (AlphaScreen, biotinylated H4-tetraacetyl peptide). The class given is binding. The following applies: AlphaScreen, Table 29; read-out: CBP IC50. An outline of the steps: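 His-tagged CBP expressed in E. coli (50 nM final) incubated with biotinylated H4K5/8/12/16(Ac) peptide (20 nM final) in 50 mM HEPES pH 7.3, 10 mM NaCl, 0.25 mM TCEP, 0.1% BSA, 0.005% Brij-35, 0.4% DMSO, 20 min at room temp.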
Chain of CBP (Q92793 1081-1197): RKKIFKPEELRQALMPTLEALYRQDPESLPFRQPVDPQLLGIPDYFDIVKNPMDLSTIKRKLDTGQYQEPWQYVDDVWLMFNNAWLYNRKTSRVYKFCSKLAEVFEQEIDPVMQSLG
In general terms: Bead proximity is the source of the signal in Alpha formats.
The term IC50 denotes the concentration that inhibits the measured activity by half. In the case of `CC(C)Oc1ccc(-c2cc(=O)n(C)cc2-c2cnn(-c3ccccc3C(=O)O)c2)cn1` [Example 231, 2-[4-(6-Isopropoxy-1′-methyl-6′-oxo-1′,6′-dihydro-[3,4′]bipyridinyl-3′-yl)-pyra.zol-1-yl]-benzoic acid], the IC50 is less than 500 nM. Regarding `CC(C)COc1ccc(-c2cc(=O)n(C)cc2-c2cnn(-c3ccccc3C(=O)O)c2)cn1` [Example 232, 2-[4-(6-Isobutoxy-1′-methyl-6′-oxo-1′,6′-dihydro-[3,4′]bipyridinyl-3′-yl)-pyrazol-1-yl]-benzoic acid], the IC50 is less than 500 nM. In the case of `CCOc1ccc(-c2cc(=O)n(C)cc2-c2cnn(-c3ccccc3C#N)c2)cn1` [Example 234, 2-[4-(6-Ethoxy-1′-methyl-6′-oxo-1′,6′-dihydro-[3,4′]bipyridinyl-3′-yl)-pyrazol-1-yl]-benzonitrile], the IC50 is less than 500 nM.

`CC(C)Oc1ccc(-c2cc(=O)n(C)cc2-c2cnn(-c3ccccc3C#N)c2)cn1` [Example 235, 2-[4-(6-Isopropoxy-1′-methyl-6′-oxo-1′,6′-dihydro-[3,4′]bipyridinyl-3′-yl)-pyrazol-1-yl]-benzonitrile]: the IC50 was less than 500 nM. `CC(C)COc1ccc(-c2cc(=O)n(C)cc2-c2cnn(-c3ccccc3C#N)c2)cn1` [Example 236, 2-[4-(6-Isobutoxy-1′-methyl-6′-oxo-1′,6′-dihydro-[3,4′]bipyridinyl-3′-yl)-pyrazol-1-yl]-benzonitrile]: the half-maximal inhibitory concentration (IC50) is less than 500 nM. Regarding `Cn1cc(-c2cnn(-c3ccccc3C#N)c2)c(-c2cccnc2)cc1=O` [Example 237, 2-[4-(1′-Methyl-6′-oxo-1′,6′-dihydro-[3,4′]bipyridinyl-3′-yl)-pyrazol-1-yl]-benzonitrile], the IC50 was less than 500 nM. For `COc1ccc(-c2cc(=O)n(C)cc2-c2cnn(-c3ccccc3C#N)c2)cn1` [Example 238, 2-(4-(6-methoxy-1′-methyl-6′-oxo-1′,6′-dihydro-[3,4′-bipyridin]-3′-yl)-1H-pyrazol-1-yl)benzonitrile], the IC50 was less than 500 nM. `Cc1cc(-c2cc(=O)n(C)cc2-c2cnn(-c3ccccc3C#N)c2)cn(C)c1=O` [Example 239, 2-(4-(1,1′,5-trimethyl-6,6′-dioxo-1,1′,6,6′-tetrahydro-[3,4′-bipyridin]-3′-yl)-1H-pyrazol-1-yl)benzonitrile]: the IC50 is less than 500 nM. Take `Cn1cc(-c2cnn(-c3ccccc3C#N)c2)c(-c2c[nH]c(=O)c(F)c2)cc1=O` [Example 240, 2-(4-(5-fluoro-1′-methyl-6,6′-dioxo-1,1′,6,6′-tetrahydro-[3,4′-bipyridin]-3′-yl)-1H-pyrazol-1-yl)benzonitrile]: the IC50 was less than 500 nM.

For `COc1cccc(-c2cc(=O)n(C)cc2-c2cnn(-c3ccccc3C#N)c2)c1` [Example 241, 2-{4-[4-(3-Methoxy-phenyl)-1-methyl-6-oxo-1,6-dihydro-pyridin-3-yl]-pyrazol-1-yl}-benzonitrile], the IC50 is less than 500 nM. Next, `COc1cncc(-c2cc(=O)n(C)cc2-c2cnn(-c3ccccc3C#N)c2)c1` [Example 242, 2-(4-(5-methoxy-1′-methyl-6′-oxo-1′,6′-dihydro-[3,4′-bipyridin]-3′-yl)-1H-pyrazol-1-yl)benzonitrile]: less than 500 nM. Take `COc1ccc(-c2cc(=O)n(C)cc2-c2cnn(-c3ccccc3C#N)c2)cc1OC` [Example 243, 2-(4-(4-(3,4-dimethoxyphenyl)-1-methyl-6-oxo-1,6-dihydropyridin-3-yl)-1H-pyrazol-1-yl)benzonitrile]: the IC50 was less than 500 nM. Take `COc1ncc(-c2cc(=O)n(C)cc2-c2cnn(-c3ccccc3C#N)c2)cn1` [Example 244, 2-{4-[4-(2-Methoxy-pyrimidin-5-yl)-1-methyl-6-oxo-1,6-dihydro-pyridin-3-yl]-pyrazol-1-yl}-benzonitrile]: the IC50 was less than 500 nM. Consider `CNc1ncc(-c2cc(=O)n(C)cc2-c2cnn(-c3ccccc3C#N)c2)cn1` [Example 245, 2-(4-(1-methyl-4-(2-(methylamino)pyrimidin-5-yl)-6-oxo-1,6-dihydropyridin-3-yl)-1H-pyrazol-1-yl)benzonitrile], for which the IC50 is less than 500 nM. As for `COc1cc(-c2cc(=O)n(C)cc2-c2cnn(-c3ccccc3C#N)c2)cc(OC)c1OC` [Example 246, 2-{4-[1-Methyl-6-oxo-4-(3,4,5-trimethoxy-phenyl)-1,6-dihydro-pyridin-3-yl]-pyrazol-1-yl}-benzonitrile], the IC50 was 500 to 5000 nM.

Consider `CCOc1cc(=O)n(C)cc1-c1cnn(-c2cc(OC)ccc2C(=O)O)c1` [Example 247, 2-[4-(4-Ethoxy-1-methyl-6-oxo-1,6-dihydro-pyridin-3-yl)-pyrazol-1-yl]-4-methoxy-benzoic acid], for which the IC50 was less than 500 nM. Turning to `CCOc1cc(=O)n(C)cc1-c1cnn(-c2cc(OC3CC3)ccc2C(=O)O)c1` [Example 248, 4-Cyclopropoxy-2-[4-(4-ethoxy-1-methyl-6-oxo-1,6-dihydro-pyridin-3-yl)-pyrazol-1-yl]-benzoic acid], the IC50 is less than 500 nM. In the case of `CCOc1cc(=O)n(C)cc1-c1cnn(-c2ccccc2C(=O)O)c1` [Example 249, 2-(4-(4-ethoxy-1-methyl-6-oxo-1,6-dihydropyridin-3-yl)-1H-pyrazol-1-yl)benzoic acid], the IC50 is less than 500 nM. To `CCOc1cc(=O)n(C)cc1-c1cnn(-c2cccc(C#N)c2)c1` [Example 251, 3-(4-(4-ethoxy-1-methyl-6-oxo-1,6-dihydropyridin-3-yl)-1H-pyrazol-1-yl)benzonitrile] belongs less than 500 nM; to `CCOc1cc(=O)n(C)cc1-c1cnn(-c2ccccc2F)c1` [Example 252, 4-ethoxy-5-(1-(2-fluorophenyl)-1H-pyrazol-4-yl)-1-methylpyridin-2(1H)-one], less than 500 nM; to `CCOc1cc(=O)n(C)cc1-c1cnn(-c2ccccn2)c1` [Example 253, 4-ethoxy-1-methyl-5-(1-(pyridin-2-yl)-1H-pyrazol-4-yl)pyridin-2(1H)-one], less than 500 nM. In the case of `Cc1cc(-c2cnn(-c3ccccc3C#N)c2)cn(C)c1=O` [Example 254, 2-[4-(1,5-Dimethyl-6-oxo-1,6-dihydro-pyridin-3-yl)-pyrazol-1-yl]-benzonitrile], the IC50 is less than 500 nM.

In the case of `Cc1cc(-c2cnn(-c3ccccc3C(=O)O)c2)cn(C)c1=O` [Example 255, 2-[4-(1,5-Dimethyl-6-oxo-1,6-dihydro-pyridin-3-yl)-pyrazol-1-yl]-benzoic acid], the IC50 was less than 500 nM. To `CCc1cc(-c2cnn(-c3ccccc3C#N)c2)cn(C)c1=O` [Example 256, 2-[4-(5-Ethyl-1-methyl-6-oxo-1,6-dihydro-pyridin-3-yl)-pyrazol-1-yl]-benzonitrile] belongs less than 500 nM; to `CCc1cc(-c2cnn(-c3ccccc3C(=O)O)c2)cn(C)c1=O` [Example 257, 2-[4-(5-Ethyl-1-methyl-6-oxo-1,6-dihydro-pyridin-3-yl)-pyrazol-1-yl]-benzoic acid], 500 to 5000 nM; to `Cc1cc(-c2cnn(-c3cc(Oc4ccccc4)ccc3C#N)c2)cn(C)c1=O` [Example 258, 2-[4-(1,5-Dimethyl-6-oxo-1,6-dihydro-pyridin-3-yl)-pyrazol-1-yl]-4-phenoxy-benzonitrile], less than 500 nM. To `Cc1cc(-c2cnn(-c3cc(Oc4ccccc4)ccc3C(=O)O)c2)cn(C)c1=O` [Example 259, 2-[4-(1,5-Dimethyl-6-oxo-1,6-dihydro-pyridin-3-yl)-pyrazol-1-yl]-4-phenoxy-benzoic acid] belongs greater than 5000 nM.
